Values of other authors as cited in patent US20050163759A1, “Compositions and methods for ex vivo preservation of blood vessels for vascular grafts using inhibitors of type I and/or type II phosphodiesterases” (priority 2003, published 2005).

Tested on: endothelial cells
Conditions: stated as known; no experiment described

Question: Which “db cAMP concentrations that become toxic to endothelial cells” value does the source give for `CCCC(=O)Nc1ncnc2c1ncn2[C@@H]1O[C@@H]2COP(=O)(O)O[C@H]2[C@H]1OC(=O)CCC` [db cAMP, dibutyryl adenosine 3′,5′-cyclic monophosphate] here?
Answer: higher than 4 mM
